One experiment addresses T1, FGFR1 (Homo sapiens, UniProt P11362).
T1 construct: cytoplasmic domain [398-822 (terminal) amino acids]; purchased Carna 08-133
The experiment is described as follows: FGFR1 kinase activity inhibition assay (LanthaScreen TR-FRET). The format is biochemical. The conditions noted are these: for IC50: FGFR1 kinase, TR-FRET, read-out: IC50 (nM) FGFR1. The method, boiled down:
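Emission ratio 520 nm/495 nm by TR-FRET after stopping reaction with 10 mM EDTA and 60 min incubation at 22°C. Inhibition normalized between no-enzyme (min) and DMSO (max) controls, then fitted to a four-parameter curve (Top, Bottom, HillSlope).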

Another experiment concerns the target T2, FGFR2 (Homo sapiens, UniProt P21802).
T2 construct: FGFR2's cytoplasmic domain [399-821 (terminal) amino acids]; purchased Carna 08-134
Put plainly: FGFR2 kinase activity inhibition assay (LanthaScreen TR-FRET). The format is biochemical. The conditions noted are these: for IC50: FGFR2 kinase, TR-FRET, read-out: IC50 (nM) FGFR2. The method, boiled down: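 GST-fused FGFR2 cytoplasmic domain (aa 399-821) was run as in the FGFR1 protocol: preincubated 10 min at 23 °C with compound (3-fold series from 1 µM) in 50 mM HEPES pH 7.5, 10 mM MgCl2, 4 mM DTT, 1% DMSO. A 2× mix of 28 nM fluorescein-poly GT/28 µM ATP then reacted 30 min. Tb-PY20/EDTA quench preceded the TR-FRET 520/495 read.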

18 compounds from patent EP4644383A1 (Jiangsu Yahong Meditech Co., Ltd., priority 2022, dated 2024) can be followed below.

Structures are written as SMILES. pIC50: −log10 of the molar value. Where two headings read alike, the source gives them in different places.

T2 sequence (P21802 399-821): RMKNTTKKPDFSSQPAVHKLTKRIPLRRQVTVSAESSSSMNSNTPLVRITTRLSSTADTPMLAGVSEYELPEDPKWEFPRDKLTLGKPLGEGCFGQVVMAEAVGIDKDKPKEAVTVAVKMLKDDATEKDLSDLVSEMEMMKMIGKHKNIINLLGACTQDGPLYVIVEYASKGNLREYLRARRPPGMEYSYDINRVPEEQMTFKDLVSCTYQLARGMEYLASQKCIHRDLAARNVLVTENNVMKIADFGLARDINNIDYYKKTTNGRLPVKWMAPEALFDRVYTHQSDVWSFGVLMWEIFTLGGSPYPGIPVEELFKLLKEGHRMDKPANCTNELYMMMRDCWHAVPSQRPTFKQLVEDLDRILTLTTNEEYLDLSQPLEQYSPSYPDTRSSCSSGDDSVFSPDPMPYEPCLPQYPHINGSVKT
T1 sequence (P11362 398-822): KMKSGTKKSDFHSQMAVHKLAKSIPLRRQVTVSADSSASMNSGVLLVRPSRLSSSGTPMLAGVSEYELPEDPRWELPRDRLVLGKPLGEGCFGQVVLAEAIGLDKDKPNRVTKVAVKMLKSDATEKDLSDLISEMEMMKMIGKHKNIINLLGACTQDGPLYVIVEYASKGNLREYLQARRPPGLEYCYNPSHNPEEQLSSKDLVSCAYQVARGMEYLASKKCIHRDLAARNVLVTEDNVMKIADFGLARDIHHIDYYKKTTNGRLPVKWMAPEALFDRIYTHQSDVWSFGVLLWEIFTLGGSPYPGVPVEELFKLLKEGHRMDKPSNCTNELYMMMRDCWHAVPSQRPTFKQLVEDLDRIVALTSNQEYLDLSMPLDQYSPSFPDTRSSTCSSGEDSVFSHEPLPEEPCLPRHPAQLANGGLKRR

As to `C[C@@H](Oc1cc(F)c2[nH]nc(-c3cnn(CCN4CCOCC4)c3)c2c1)c1c(Cl)cncc1Cl` [Example 12, (R)-4-(2-(4-(5-(1-(3,5-dichloropyridin-4-yl)ethoxy)-7-fluoro-1H-indazol-3-yl)-1H-pyrazol-1-yl)ethyl)morph oline], the half-maximal inhibitory concentration (IC50) on FGFR1 is 10 to 100 nM; on FGFR2, 1 to 10 nM. The corresponding values for `C[C@@H](Oc1ccc2[nH]nc(-c3cnn(C)c3)c2n1)c1c(Cl)cncc1Cl` [Example 29, (R)-5-(1-(3,5-dichloropyridin-4-yl)ethoxy)-3-(1-methyl-1H-pyrazol-4-yl)-1H-pyrazolo[4,3-b]pyridine] are 1 to 10 nM and under 1 nM. Take `C[C@@H](Oc1ccc2[nH]nc(-c3cnn(CCN4CCN(C)C(=O)C4)c3)c2n1)c1c(Cl)cncc1Cl` [Example 54, (R)-4-(2-(4-(5-(1-(3,5-dichloropyridin-4-yl)ethoxy)-1H-pyrazolo[4,3-b]pyridin-3-yl)-1H-pyrazol-1-yl)ethyl)-1-methylpiperazin-2-one]: at FGFR1, the IC50 lay within 1 to 10 nM. The same measure, in the same setting: the figure for `C[C@@H](Oc1ccc2[nH]nc(-c3cnn(CCN4CCS(=O)(=O)CC4)c3)c2n1)c1c(Cl)cncc1Cl` [Example 55, (R)-4-(2-(4-(5-(1-(3,5-dichloropyridin-4-yl)ethoxy)-1H-pyrazolo[4,3-b]pyridin-3-yl)-1H-pyrazol-1-yl)ethyl)thiomorph oline 1,1-dioxide] is 10 to 100 nM. With `CC(Oc1ccc2[nH]nc(-c3cnn(C)c3)c2c1)c1cccc2ncccc12` (centres unmarked) [Example 88, 5-(1-((3-(1-methyl-1H-pyrazol-4-yl)-1H-indazol-5-yl)oxy)ethyl)quin oline], the IC50 on FGFR1 lay within 10 to 100 nM; at FGFR2 it was 1 to 10 nM. Take `CC(Oc1ccc2[nH]nc(-c3cnn(C)c3)c2c1)c1cccc2nccnc12` (centres unmarked) [Example 92, 5-(1-((3-(1-methyl-1H-pyrazol-4-yl)-1H-indazol-5-yl)oxy)ethyl)quin oxaline]: the IC50 at FGFR1 and on FGFR2 was 1 to 10 nM throughout. In the case of `Cc1ccc2ncccc2c1C(C)Oc1ccc2[nH]nc(-c3cnn(C)c3)c2c1` (centres unmarked) [Example 95, 6-methyl-5-(1-((3-(1-methyl-1H-pyrazol-4-yl)-1H-indazol-5-yl)oxy)ethyl)quinolinee], the negative logarithm of the IC50 (pIC50) is 7.00 to 8.00 at FGFR1 and 8.00 to 9.00 at FGFR2. `CC(Oc1ccc2[nH]nc(-c3cnn(C)c3)c2c1)c1cccn2ncnc12` (centres unmarked) [Example 101, 8-(1-((3-(1-methyl-1H-pyrazol-4-yl)-1H-indazol-5-yl)oxy)ethyl)-[1,2,4]triazolo[1,5-a]pyridine]: the concentration for half-maximal inhibition (IC50) at FGFR1 was 10 to 100 nM. In the case of `CC(Oc1ccc2[nH]nc(-c3cnn(C)c3)c2c1)c1c(C(F)F)ccc2ncccc12` (centres unmarked) [Example 127, 6-(difluoromethyl)-5-(1-((3-(1-methyl-1H-pyrazol-4-yl)-1H-indazol-5-yl)oxy)ethyl)quinoline], the concentration for half-maximal inhibition (IC50) on FGFR1 is over 100 nM; on FGFR2 it was 1 to 10 nM. The corresponding values for `CC(Oc1ccc2[nH]nc(-c3cnn(C)c3)c2c1)c1c(CF)ccc2ncccc12` (centres unmarked) [Example 130, 6-(fluoromethyl)-5-(1-((3-(1-methyl-1H-pyrazol-4-yl)-1H-indazol-5-yl)oxy)ethyl)q uinoline] are 10 to 100 nM and 1 to 10 nM. Turning to `CC(Oc1ccc2[nH]nc(-c3cnn(C)c3)c2c1)c1cc(Cl)cc2nccnc12` (centres unmarked) [Example 136, 7-chloro-5-(1-((3-(1-methyl-1H-pyrazol-4-yl)-1H-indazol-5-yl)oxy)ethyl)qu inoxaline], the IC50 at FGFR1 lay within 10 to 100 nM; on FGFR2, 1 to 10 nM.

Regarding `Cc1cc2nccnc2c(C(C)Oc2ccc3[nH]nc(-c4cnn(C)c4)c3c2)n1` (centres unmarked) [Example 183, 7-methyl-5-(1-((3-(1-methyl-1H-pyrazol-4-yl)-1H-indazol-5-yl)oxy)ethyl)pyridino [3,4-b]pyrazine], the IC50 is 10 to 100 nM at FGFR1 and 1 to 10 nM on FGFR2.

`COCC(=O)N1CC(n2cc(-c3n[nH]c4ccc(OC(C)c5cccc6nccnc56)cc34)cn2)C1` (centres unmarked) [Example 188, 2-methoxy-1-(3-(4-(5-(1-(quinoxalin-5-yl)ethoxy)-1H-indazol-3-yl)-1H-pyrazol-1-yl)azetidin-1-yl)ethan-1-one]: the IC50 was in the range of 10 to 100 nM at FGFR1 and 1 to 10 nM at FGFR2.

In the case of `CC(Oc1ccc2[nH]nc(-c3cnn(C4CN(C(=O)C(C)(C)O)C4)c3)c2c1)c1cccc2nccnc12` (centres unmarked) [Example 190, 2-hydroxy-2-methyl-1-(3-(4-(5-(1-(quinoxalin-5-yl)ethoxy)-1H-indazol-3-yl)-1H-pyrazol-1-yl)azetidin-1-yl)propan-1-one], the half-inhibitory concentration (IC50) was in the range of 10 to 100 nM on FGFR1 and 1 to 10 nM on FGFR2. Taken in the same sequence, the figures for `CC(=O)N1CC(n2cc(-c3n[nH]c4ccc(OC(C)c5cccc6nccnc56)cc34)cn2)C1` (centres unmarked) [Example 218, 1-(3-(4-(5-(1-(quinoxalin-5-yl)ethoxy)-1H-indazol-3-yl)-1H-pyrazol-1-yl)azetidin-1-yl)ethan-1-one] were 10 to 100 nM and 1 to 10 nM. On to `CC(Oc1cc2c(-c3cnn(C)c3)n[nH]c2cc1F)c1cc(Cl)cc2nccnc12` (centres unmarked) [Example 227, 7-chloro-5-(1-((6-fluoro-3-(1-methyl-1H-pyrazol-4-yl)-1H-indazol-5-yl)oxy)ethyl)qu inoxaline], for which the concentration for half-maximal inhibition (IC50) on FGFR1 lay within 1 to 10 nM. Turning to `CC(Oc1ccc2[nH]nc(-c3cnn(C)c3)c2c1)c1nc(C(F)F)cc2nccnc12` (centres unmarked) [Example 236, 7-(difluoromethyl)-5-(1-((3-(1-methyl-1H-pyrazol-4-yl)-1H-indazol-5-yl)oxy)ethyl)pyridino[3,4-b]pyrazine], the IC50 at FGFR1 and on FGFR2 was 1 to 10 nM throughout. `[2H]C([2H])([2H])c1cc2nccnc2c(C(C)Oc2ccc3[nH]nc(-c4cnn(C)c4)c3c2)n1` (centres unmarked) [Example 241]: the pIC50 against FGFR1 is 8.00 to 9.00; against FGFR2 it was over 9.00.
